{"source": "patent US20180050035A1", "about": "“ANTIFUNGAL TREATMENT OF ROSACEA” (Gerbe Labs Inc., priority 2016, published 2018)", "assay_type_in_all_cases": "cell-based", "key": {"Candida albicans": {"tested_on": "Candida albicans", "experiment": "Culture of Patient 7, sensitivity of isolate", "conditions": "Patient 7 culture", "from_the_text": "(§1) The patient underwent the standard workup for CRS, sleep disorder, and nasal obstruction, plus our diagnostic skin test and sinus CT scan."}, "gram negative bacteria": {"tested_on": "gram negative bacteria", "experiment": "Culture of Patient 7, sensitivity of isolate", "conditions": "Patient 7 culture", "from_the_text": "as §1"}, "[1]": {"tested_on": "Aspergillus fumigatus + Candida albicans co-culture (1:1)", "experiment": "Broth microdilution MIC assay against co-culture of fungal spores", "conditions": "Table 4, repeated MIC study, agent alone, listed as Itraconazone", "experimental": "Broth Microdilution Minimal Inhibitory Concentration (MIC) assays were performed to obtain the MIC values for Itraconazole and Ketoconazole with an antibiotic (Vancomycin or Tobramycin or Amikacin) against the two fungal strains.\nThe strains were maintained as a frozen glycerol stocks at −80° C. The fungal strains were prepared by thawing a glycerol stock, streaking and growing onto Sabouraud's Dextrose Agar (SDA) plates, overnight at 35±2° C. in aerobic conditions and used for the assay.\nThe completely synthetic medium RPMI-1640 (with glutamine, without bicarbonate, and with phenol red as a pH indicator) was buffered with 0.165 mol/L MOPS (3-[N-morpholino] propanesulfonic acid) buffer was used as the growth medium for the fungal strains. Overnight cultures of the fungal strains were grown on Difco™ Sabouraud's Dextrose Agar (SDA) plates at 35° C. To induce conidium and sporangiospore formation, the culture plates were transferred to incubator and grown for 5-7 days 30° C. or until good sporulation was obtained. Approximately, 10 mL of 0.85% saline containing 0.01% of Tween 80 was used to poured on to the agar plate containing conidia or sporangiospores and hyphal fragments. The suspension containing conidia or sporangiospores and hyphal fragments was aspirated and transferred to a sterile tube. This mixture was filtered to separate the spores from the vegetative cells of the fungi. […]"}}, "data": [{"compound": "CC(=O)N1CCN(c2ccc(OCC3COC(Cn4ccnc4)(c4ccc(Cl)cc4Cl)O3)cc2)CC1", "note": "(stereo not drawn) [Ketoconazole]", "values": [{"measurement": "Sensitivity of cultured isolate", "setting": "Candida albicans", "value": "sensitive"}]}, {"compound": "NC[C@H]1O[C@H](O[C@H]2[C@H](O)[C@@H](O[C@H]3O[C@H](CO)[C@@H](O)[C@H](N)[C@H]3O)[C@H](N)C[C@@H]2N)[C@H](N)C[C@@H]1O", "note": "[tobramycin]", "values": [{"measurement": "Sensitivity of cultured isolate", "setting": "gram negative bacteria", "value": "sensitive"}]}, {"compound": "CCC(C)n1ncn(-c2ccc(N3CCN(c4ccc(OCC5COC(Cn6cncn6)(c6ccc(Cl)cc6Cl)O5)cc4)CC3)cc2)c1=O", "note": "(stereo not drawn) [Itraconazole]", "values": [{"measurement": "MIC", "setting": "[1]", "value": 1, "unit": "µg/mL"}]}]}
